Experimental findings from patent publication US6828327B2, “Macroheterocylic compounds useful as kinase inhibitors” (Ortho-McNeil Pharmaceutical, Inc., priority 2000, dated 2004) are described below.

One assay concerns the target T1, PKC-βII (Homo sapiens, UniProt P05771).
T1 construct: purchased PanVera, Madison Wis; host or cells: baculovirus expression vector
Put plainly: Protein Kinase C Scintillation Proximity Assay (SPA), PKC-βII. It counts as biochemical. Conditions: inhibition value, recombinant human isozyme, 1 μM ATP. As for the experimental part:
(§1) The binding activity of a compound for Protein Kinase C (PKC) was assessed using a homogeneous Scintillation Proximity Assay according to the procedure below.
(§2) The different human PKC isozymes (were obtained from PanVera, Madison Wis. and had been prepared as recombinant enzymes produced from a baculovirus expression vector) were added to a reaction mixture containing a test compound, 20 mM HEPES (pH 7.4), 100 μM CaCl2, 10 mM MgCl2, 100 μg/mL phosphatidylserine, 20 μg/mL diacylglycerol, 1 μM ATP, 0.8 μCi (^33P)ATP, and 5 μg/mL biotinylated substrate peptide (Jing Zhao et al., J. Bio. Chem., 1998, 273, 23072). The reaction was incubated for 15 min at 30° C. Reactions were terminated by the addition of streptavidin-coated SPA beads (Amersham) in a solution containing 1 mM EGTA, 10 mM EDTA and 100 μM ATP. Beads were allowed to settle overnight and the plates read in a Wallac MICROBETA scintillation counter (PerkinElmer Life sciences, Wellesley, Mass.).
(§3) Values for inhibition of various PKC isozymes and GSK 3-β by certain compounds of the invention tested in the PKC SPA and GSK 3-β assays are shown in Table 1.

For another assay, the target named is T2, VEGF-R (Rattus norvegicus, UniProt O08775).
T2 construct: polyhistidine (N)
T2 sequence (O08775 786-1343): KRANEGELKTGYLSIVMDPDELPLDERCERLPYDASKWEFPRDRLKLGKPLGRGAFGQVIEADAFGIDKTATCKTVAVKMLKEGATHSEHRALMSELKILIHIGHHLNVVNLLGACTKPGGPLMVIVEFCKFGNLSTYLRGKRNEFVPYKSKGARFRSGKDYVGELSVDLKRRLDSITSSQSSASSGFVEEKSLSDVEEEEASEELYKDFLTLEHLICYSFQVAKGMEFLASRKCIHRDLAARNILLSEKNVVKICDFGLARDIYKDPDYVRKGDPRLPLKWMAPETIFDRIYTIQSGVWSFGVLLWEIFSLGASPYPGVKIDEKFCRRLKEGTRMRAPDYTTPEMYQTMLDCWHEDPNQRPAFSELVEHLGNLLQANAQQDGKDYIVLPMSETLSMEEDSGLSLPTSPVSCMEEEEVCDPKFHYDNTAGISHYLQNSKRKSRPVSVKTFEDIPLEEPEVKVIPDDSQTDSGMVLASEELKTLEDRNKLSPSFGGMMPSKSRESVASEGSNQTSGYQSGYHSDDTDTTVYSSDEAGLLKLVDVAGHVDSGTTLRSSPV
In words: Biotinylated Peptide Substrate Assay, VEGF-R. It counts as biochemical. Conditions: read-out: VEGF-R Kinase Assay (IC50 uM). As for the experimental part: (§4) Assays to test inhibition of a compound for other kinases were preformed using methods that measure the amount of phosphorylation of a biotinylated peptide substrate. Biotinylated peptide substrates were selected from the literature as appropriate for the enzyme being evaluated.
(§5) A kinase reaction mix was prepared in 50 mM Tris-HCl pH=8, 10 mM MgCl2, 0.1 mM Na3VO4, 1 mM DTT, 10 μM ATP, 0.25-1 μM biotinylated peptide substrate, 0.2-0.8 μCuries per well ^33P-γ-ATP (2000-3000 Ci/mmol). Assay conditions vary slightly for each protein kinase, for example, insulin receptor kinase requires 10 mM MnCl2 for activity and Calmodulin-dependent protein kinase requires calmodulin and 10 mM CaCl2. The reaction mixture was dispensed into the wells of a streptavidin coated Flashplate and 1 μL drug stock in 100% DMSO was added to a 100 μL reaction volume resulting in a final concentration of 1% DMSO in the reaction. Enzyme was diluted in 50 mM Tris-HCl pH=8.0, 0.1% BSA and added to each well. The reaction was incubated for one hour at 30° C. in the presence of compound. After one hour the reaction mix was aspirated from the plate and the plate was washed with PBS containing 100 mM EDTA. The plate was read on a scintillation counter to determine ^33P-γ-ATP incorporated into the immobilized peptide. Test compounds were assayed in duplicate at 8 concentrations (100 uM, 10 uM, 1 uM, 100 nM, 10 nM, 1 nM, 100 pM, 10 pM). A maximum and minimum signal for the assay was determined on each plate.
(§6) The IC50 was calculated from the dose response curve of the percent inhibition of the maximum signal in the assay according to the formula:
(§7) % Inhibition=((MS−BS)/(TCS−BS))×100%
(§8) where MS=Maximum Signal, BS=Background Signal, TCS=Test Compound Signal. The percent inhibition was graphed against the log concentration of the test compound. Known inhibitor compounds as appropriate references for the kinase being assayed were also included on each plate.
(§9) VEGF-R (vascular endothelial growth factor receptor-2) is a fusion protein containing a polyhistidine tag at the N-terminus followed by amino acids 786-1343 of the rat VEGF-R2 kinase domain (GenBank Accession #U93306). Protein Kinase A is the catalytic subunit of cAMP dependent protein kinase-A purified from bovine heart (Upstate Biotech, Lake Placid, N.Y., Cat#14-114). CDK1 (cyclin dependent kinase 1) is isolated from insect cells expressing both the human CDK1 catalytic subunit and its positive regulatory subunit cyclin B (New England Biolabs, Beverly, Mass., Cat. #6020). Casein Kinase-1 is a protein truncation at amino acid 318 of the C-terminal portion of the rat CK1 delta isoform produced in E.coli (New England Biolabs, Beverly, Mass., Cat. #6030). […]

For a further assay, the target named is T3, EGF-R (Homo sapiens, UniProt P00533).
T3 construct: is purified from human A431 cell membranes; purchased Sigma, St. Louis, Mo; E3641; host or cells: human A431 cell membranes (endogenous receptor)
T3 sequence (P00533 25-1210): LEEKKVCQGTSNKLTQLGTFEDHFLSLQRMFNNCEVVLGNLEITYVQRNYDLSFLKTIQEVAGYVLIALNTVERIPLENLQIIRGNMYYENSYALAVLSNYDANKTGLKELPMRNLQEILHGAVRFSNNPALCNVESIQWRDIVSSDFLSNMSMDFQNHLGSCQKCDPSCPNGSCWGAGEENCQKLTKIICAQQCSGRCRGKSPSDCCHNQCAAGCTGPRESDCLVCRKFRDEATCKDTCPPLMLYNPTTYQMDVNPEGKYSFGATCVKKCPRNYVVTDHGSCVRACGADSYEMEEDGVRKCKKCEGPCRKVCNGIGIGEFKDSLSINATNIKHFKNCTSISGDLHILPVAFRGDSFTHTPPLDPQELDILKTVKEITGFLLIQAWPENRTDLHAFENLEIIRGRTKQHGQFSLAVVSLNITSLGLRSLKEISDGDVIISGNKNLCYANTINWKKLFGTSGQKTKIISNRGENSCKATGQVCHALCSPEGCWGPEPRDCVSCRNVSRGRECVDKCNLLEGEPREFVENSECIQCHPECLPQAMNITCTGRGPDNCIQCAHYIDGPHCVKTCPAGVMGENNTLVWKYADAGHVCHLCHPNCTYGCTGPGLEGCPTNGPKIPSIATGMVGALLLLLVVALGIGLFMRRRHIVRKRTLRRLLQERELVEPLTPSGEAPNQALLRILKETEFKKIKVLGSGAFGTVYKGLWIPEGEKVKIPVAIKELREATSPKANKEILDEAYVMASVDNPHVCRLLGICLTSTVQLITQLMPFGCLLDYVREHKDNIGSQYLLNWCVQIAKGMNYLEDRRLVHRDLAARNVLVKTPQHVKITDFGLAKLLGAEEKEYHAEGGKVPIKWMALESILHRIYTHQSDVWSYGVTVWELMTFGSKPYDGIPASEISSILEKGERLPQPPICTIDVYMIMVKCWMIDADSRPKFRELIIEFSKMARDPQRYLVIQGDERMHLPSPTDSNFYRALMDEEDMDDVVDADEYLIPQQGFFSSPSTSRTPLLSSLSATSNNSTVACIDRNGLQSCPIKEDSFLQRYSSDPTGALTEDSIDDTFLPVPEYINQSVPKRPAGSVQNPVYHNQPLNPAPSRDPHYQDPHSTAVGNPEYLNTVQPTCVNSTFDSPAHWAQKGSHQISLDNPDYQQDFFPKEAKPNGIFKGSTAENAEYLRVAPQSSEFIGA
Put plainly: Biotinylated Peptide Substrate Assay, EGF-R. It counts as biochemical. Conditions: read-out: EGF-R Kinase Assay (IC50 uM). Here is the method:
as §4, §5, §6, §7, §8, §9

The next assay concerns the target T4, Insulin-R kinase (Homo sapiens, UniProt P06213).
T4 construct: consists of residues 941-1313 of the cytoplasmic domain of the beta-subunit of the human insulin receptor; purchased BIOMOL, Plymouth Meeting, Pa; SE-195
In words: Biotinylated Peptide Substrate Assay, Insulin-R kinase. It counts as biochemical. Here is the method: as §4, §5, §6, §7, §8, §9

A further assay concerns the target T5, CDK1 (Homo sapiens, UniProt P06493).
T5 construct: purchased New England Biolabs, Beverly, Mass; 6020; host or cells: insect cells
Put plainly: Biotinylated Peptide Substrate Assay, CDK1. It counts as biochemical. Conditions: read-out: CDK1 Kinase Assay (IC50 uM). Here is the method: as §4, §5, §6, §7, §8, §9

In another assay the target is T6, PKC-βI (Homo sapiens, UniProt P05771).
T6 construct: purchased PanVera, Madison Wis; host or cells: baculovirus expression vector
T6 sequence (P05771 whole entry): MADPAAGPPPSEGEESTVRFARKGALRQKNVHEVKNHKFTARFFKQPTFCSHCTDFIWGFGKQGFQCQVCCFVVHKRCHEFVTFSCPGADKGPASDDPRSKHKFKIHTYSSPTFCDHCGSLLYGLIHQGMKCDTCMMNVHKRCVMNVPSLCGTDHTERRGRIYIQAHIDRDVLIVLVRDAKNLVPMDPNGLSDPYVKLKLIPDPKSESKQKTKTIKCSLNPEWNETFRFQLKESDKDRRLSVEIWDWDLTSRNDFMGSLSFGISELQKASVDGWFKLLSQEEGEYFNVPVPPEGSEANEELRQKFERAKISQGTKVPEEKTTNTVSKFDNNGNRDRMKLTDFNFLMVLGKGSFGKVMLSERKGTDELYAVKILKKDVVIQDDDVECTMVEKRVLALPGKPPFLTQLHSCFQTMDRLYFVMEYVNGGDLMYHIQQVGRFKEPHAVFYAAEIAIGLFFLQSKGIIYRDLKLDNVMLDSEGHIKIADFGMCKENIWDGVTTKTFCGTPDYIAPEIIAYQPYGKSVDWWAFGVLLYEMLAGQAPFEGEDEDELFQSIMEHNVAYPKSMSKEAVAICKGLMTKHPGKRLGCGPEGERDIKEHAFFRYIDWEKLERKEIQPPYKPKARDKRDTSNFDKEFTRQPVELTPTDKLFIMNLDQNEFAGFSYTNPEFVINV
Put plainly: Protein Kinase C Scintillation Proximity Assay (SPA), PKC-βI. It counts as biochemical. Conditions: inhibition value, recombinant human isozyme, 1 μM ATP. Here is the method: as §1, §2, §3

The next assay deals with T7, GSK 3-β (Oryctolagus cuniculus, UniProt G1T8E2).
T7 construct: purchased New England Biolabs, Beverly Mass
T7 sequence (G1T8E2 1-432): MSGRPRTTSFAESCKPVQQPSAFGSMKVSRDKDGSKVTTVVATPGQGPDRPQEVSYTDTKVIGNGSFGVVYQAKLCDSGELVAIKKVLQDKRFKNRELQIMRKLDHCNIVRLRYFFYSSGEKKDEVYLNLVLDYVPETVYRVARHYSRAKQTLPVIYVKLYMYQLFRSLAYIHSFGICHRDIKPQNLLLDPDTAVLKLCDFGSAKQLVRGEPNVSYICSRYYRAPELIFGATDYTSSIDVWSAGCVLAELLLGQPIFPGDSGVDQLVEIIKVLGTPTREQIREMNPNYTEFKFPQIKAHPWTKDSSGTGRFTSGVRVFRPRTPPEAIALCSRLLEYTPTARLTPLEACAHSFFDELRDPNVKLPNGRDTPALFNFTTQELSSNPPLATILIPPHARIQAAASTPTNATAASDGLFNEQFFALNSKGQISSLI
Put plainly: Glycogen Synthase Kinase 3-β Assay. It counts as biochemical, rabbit. Conditions: inhibition value, recombinant rabbit GSK 3-β, PPI-2 substrate. Here is the method: The inhibitory activity of a compound against Glycogen Synthase Kinase 3-β (GSK 3-β) activity was assessed using a recombinant rabbit GSK 3-β according to the procedure below.
The mixture was reacted for 90 minutes at 30° C. to allow phosphorylation of the PPI-2 protein and then the protein in the reaction was precipitated using 10% trichloroacetic acid (TCA). The precipitated protein was collected on filter plates (MultiScreen-DV, Millipore, Bedford Mass.), which were subsequently washed. Finally, the radioactivity was quantified using a TopCount Scintillation Counter (Packard, Meridian Conn.). […] Staurosporine or Valproate (both available from several commercial sources), known inhibitors of GSK-3-β, were used as a positive control for screening.

In the next assay the target is T8, PKC-γ (Homo sapiens, UniProt P05129).
T8 construct: purchased PanVera, Madison Wis; host or cells: baculovirus expression vector
In words: Protein Kinase C Scintillation Proximity Assay (SPA), PKC-γ. It counts as biochemical. Conditions: inhibition value, recombinant human isozyme, 1 μM ATP. Here is the method:
as §1, §2, §3

T1 sequence (P05771 1-673 isoform P05771-2): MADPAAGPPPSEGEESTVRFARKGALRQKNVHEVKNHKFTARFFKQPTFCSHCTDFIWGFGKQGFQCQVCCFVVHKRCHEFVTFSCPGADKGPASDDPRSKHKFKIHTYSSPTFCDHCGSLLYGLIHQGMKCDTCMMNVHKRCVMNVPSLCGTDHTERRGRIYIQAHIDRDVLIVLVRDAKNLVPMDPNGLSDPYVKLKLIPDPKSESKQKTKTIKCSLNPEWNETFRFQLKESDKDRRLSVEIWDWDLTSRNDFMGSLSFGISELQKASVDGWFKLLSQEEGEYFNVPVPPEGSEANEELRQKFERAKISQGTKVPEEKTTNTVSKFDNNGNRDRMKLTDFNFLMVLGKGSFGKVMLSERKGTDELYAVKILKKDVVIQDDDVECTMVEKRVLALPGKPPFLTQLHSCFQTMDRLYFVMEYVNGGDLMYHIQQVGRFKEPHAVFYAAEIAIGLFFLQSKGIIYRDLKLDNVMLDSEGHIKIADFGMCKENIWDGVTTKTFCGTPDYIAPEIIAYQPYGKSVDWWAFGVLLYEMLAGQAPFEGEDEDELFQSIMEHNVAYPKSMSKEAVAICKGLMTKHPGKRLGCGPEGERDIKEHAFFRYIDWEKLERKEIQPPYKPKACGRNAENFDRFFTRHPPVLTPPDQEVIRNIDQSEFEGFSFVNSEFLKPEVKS
T5 sequence (P06493 whole entry): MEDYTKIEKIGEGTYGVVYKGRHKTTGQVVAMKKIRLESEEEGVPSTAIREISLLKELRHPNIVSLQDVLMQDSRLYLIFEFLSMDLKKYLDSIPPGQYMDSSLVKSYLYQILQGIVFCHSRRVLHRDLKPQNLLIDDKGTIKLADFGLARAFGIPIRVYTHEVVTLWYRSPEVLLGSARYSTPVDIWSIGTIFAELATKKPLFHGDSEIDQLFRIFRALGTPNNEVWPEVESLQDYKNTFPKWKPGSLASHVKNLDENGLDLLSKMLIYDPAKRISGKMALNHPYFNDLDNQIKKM
T5 sequence (P14635 whole entry partner): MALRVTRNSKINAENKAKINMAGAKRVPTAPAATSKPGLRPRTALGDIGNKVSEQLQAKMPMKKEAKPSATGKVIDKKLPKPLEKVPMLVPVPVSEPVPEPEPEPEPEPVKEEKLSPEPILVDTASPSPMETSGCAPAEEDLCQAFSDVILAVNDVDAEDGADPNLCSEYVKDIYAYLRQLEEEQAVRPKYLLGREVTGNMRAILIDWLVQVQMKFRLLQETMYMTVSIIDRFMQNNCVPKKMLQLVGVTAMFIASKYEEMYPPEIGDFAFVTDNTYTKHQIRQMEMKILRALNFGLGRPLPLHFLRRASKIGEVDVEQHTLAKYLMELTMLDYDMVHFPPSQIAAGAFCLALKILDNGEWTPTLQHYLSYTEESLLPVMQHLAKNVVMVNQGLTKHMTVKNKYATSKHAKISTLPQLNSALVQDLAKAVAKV

Turning to `O=C1NC(=O)C2=C1c1cn(c3ncccc13)CCOCCOCCOCCn1cc2c2cccnc21` [Cpd 1], the IC50 is 2410 nM on PKC-βII; above 10 µM on VEGF-R; above 10 µM on EGF-R; above 10 µM at Insulin-R kinase; above 10 µM at CDK1; 18500 nM at PKC-βI. Further, the 50% inhibitory concentration (IC50) at GSK 3-β was 27 nM; on PKC-γ, 38700 nM.
As to `O=C1NC(=O)C2=C1c1cn(c3ncccc13)CCOCCOCCOCCOCCn1cc2c2cccnc21` [Cpd 2], the IC50 on PKC-βII was above 100000 nM; at VEGF-R, above 10 µM; on EGF-R, above 10 µM; against Insulin-R kinase it was above 10 µM; at CDK1, above 10 µM; on PKC-βI it was above 100000 nM. For the same compound, the results for the IC50 at GSK 3-β and at PKC-γ were 32 nM and above 100000 nM, respectively.
For `O=C1NC(=O)C2=C1c1cn(c3ccccc13)CCOCCOCCn1cc2c2cccnc21` [Cpd 10], the IC50 at PKC-βII is 519 nM; on VEGF-R, 1.2 µM; at EGF-R, above 10 µM; against Insulin-R kinase, above 10 µM; at CDK1, 0.422 µM; on PKC-βI it was 5150 nM. Further, the IC50 at GSK 3-β was 128 nM; on PKC-γ, 7800 nM.
In the case of `O=C1NC(=O)C2=C1c1cn(c3ccccc13)CCOCCOCCOCCn1cc2c2cccnc21` [Cpd 11], the IC50 on PKC-βII was 72 nM; on VEGF-R, 0.889 µM; on EGF-R, above 10 µM; at Insulin-R kinase, above 10 µM; at CDK1, 0.457 µM; on PKC-βI, 1060 nM. In addition, the IC50 on GSK 3-β came out at 15 nM; on PKC-γ, 2850 nM.
